Patent US20220347175A1, “PYRIDAZINONE DERIVATIVE” (Sumitomo Dainippon Pharma Co., Ltd., priority 2018, published 2022)
One block for each molecule: values may come before it.

Columns and labels:
[1] = target: T1, human Nav1.1 (Homo sapiens, UniProt P35498); test: Amplification of Nav1.1-derived voltage-dependent sodium current (Nav1.1 current), cell line stably expressing human Nav1.1, automated patch clamp; format: cell-based; details: for activation at 1 µM: compound 1 μmol/L
T1 construct: host or cells: HEK293
How it was run: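 Automated whole-cell voltage-clamp recordings used HEK293 cells stably expressing human Nav1.1, keeping only cells with >500 pA current, with currents evoked by ramp voltage. Compounds were applied in extracellular fluid with 1% DMSO, and amplification (%) was computed from peak current or AUC after versus before addition.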

[2] = target: T2, human Nav1.5 (Homo sapiens, UniProt Q14524); test: Amplification of Nav1.5-derived voltage-dependent sodium current (Nav1.5 current), cell line stably expressing human Nav1.5, automated patch clamp; format: cell-based; details: for activation at 1 µM: compound 1 μmol/L
T2 construct: expressed in transfected cells; host or cells: CHO-K1 (T-REx System, ThermoFisher Scientific)
T2 sequence (Q14524 1-2015 isoform Q14524-2): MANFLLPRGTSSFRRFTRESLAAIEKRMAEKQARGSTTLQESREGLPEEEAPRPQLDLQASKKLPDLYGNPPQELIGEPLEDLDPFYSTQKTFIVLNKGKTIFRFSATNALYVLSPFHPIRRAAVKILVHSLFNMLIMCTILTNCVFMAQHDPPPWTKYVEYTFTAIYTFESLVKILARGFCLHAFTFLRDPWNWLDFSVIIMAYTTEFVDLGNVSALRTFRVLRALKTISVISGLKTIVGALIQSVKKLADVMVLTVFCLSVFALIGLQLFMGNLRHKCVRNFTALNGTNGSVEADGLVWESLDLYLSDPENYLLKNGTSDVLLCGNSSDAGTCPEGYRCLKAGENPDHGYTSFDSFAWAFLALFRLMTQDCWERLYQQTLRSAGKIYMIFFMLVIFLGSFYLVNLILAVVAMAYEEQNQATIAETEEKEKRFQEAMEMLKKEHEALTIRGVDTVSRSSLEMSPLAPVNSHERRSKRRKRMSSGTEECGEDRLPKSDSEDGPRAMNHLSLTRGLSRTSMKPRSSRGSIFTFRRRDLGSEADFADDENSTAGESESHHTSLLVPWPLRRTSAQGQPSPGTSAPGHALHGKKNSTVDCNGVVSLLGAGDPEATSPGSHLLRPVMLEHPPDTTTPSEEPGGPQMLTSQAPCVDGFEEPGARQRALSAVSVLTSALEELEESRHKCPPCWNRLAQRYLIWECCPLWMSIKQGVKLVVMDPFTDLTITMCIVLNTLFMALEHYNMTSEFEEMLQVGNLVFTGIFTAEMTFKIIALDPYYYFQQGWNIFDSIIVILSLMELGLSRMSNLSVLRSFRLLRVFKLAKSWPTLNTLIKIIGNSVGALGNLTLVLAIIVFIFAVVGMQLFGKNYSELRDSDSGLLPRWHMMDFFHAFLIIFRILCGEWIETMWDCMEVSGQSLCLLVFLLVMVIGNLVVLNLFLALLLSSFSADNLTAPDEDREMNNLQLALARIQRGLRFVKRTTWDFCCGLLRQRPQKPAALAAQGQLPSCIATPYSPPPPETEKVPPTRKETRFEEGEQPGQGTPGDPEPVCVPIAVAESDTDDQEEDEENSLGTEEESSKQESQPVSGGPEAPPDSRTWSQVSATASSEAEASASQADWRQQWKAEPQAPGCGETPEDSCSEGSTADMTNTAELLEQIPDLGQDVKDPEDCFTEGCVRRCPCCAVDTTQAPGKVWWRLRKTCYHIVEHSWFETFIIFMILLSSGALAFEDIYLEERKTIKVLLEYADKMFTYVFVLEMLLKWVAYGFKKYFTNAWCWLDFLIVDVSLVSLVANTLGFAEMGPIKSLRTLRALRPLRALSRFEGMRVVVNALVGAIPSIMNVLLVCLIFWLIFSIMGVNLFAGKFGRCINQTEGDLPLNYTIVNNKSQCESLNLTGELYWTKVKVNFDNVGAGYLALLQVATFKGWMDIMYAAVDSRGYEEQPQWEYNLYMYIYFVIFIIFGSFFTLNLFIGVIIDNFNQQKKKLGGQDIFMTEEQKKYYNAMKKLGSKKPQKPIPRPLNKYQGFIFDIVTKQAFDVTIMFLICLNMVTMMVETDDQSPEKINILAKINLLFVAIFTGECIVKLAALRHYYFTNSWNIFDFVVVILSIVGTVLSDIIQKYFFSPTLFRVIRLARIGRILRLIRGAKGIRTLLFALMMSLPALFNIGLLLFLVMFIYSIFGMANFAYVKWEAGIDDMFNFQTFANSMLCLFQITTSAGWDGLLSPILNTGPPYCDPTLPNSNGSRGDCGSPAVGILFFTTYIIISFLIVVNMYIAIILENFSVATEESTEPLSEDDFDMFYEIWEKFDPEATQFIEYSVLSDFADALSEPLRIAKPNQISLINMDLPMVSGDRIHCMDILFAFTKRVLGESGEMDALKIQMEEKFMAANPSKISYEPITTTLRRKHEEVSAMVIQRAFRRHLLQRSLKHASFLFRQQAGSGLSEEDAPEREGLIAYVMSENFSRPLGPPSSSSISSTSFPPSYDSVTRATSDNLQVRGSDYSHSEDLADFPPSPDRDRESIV

[3] = 10 μmol/L compound, change of the area under the curve of Nav1.1 current (Test Result 1)
[4] = 10 μmol/L compound, change of the area under the curve of Nav1.5 current (Test Result 1)
[5] = 10 μmol/L compound, change of the area under the curve of Nav1.1 current (Test Result 1), read-out: Nav1.1 current amplification rate (%)
[6] = 10 μmol/L compound, change of the area under the curve of Nav1.5 current (Test Result 1), read-out: Nav1.5 current amplification rate (%)
[7] = compound 3 μmol/L, HEK293 stably expressing human Nav1.1
[8] = compound 3 μmol/L, CHO-K1 stably expressing human Nav1.5
[9] = HEK293 stably expressing human Nav1.1, read-out: Nav1.1 current amplification rate (%)
[10] = CHO-K1 stably expressing human Nav1.5, read-out: Nav1.5 current amplification rate (%)

SMILES: Cc1cc(C2=CCC(C)(C)CC2)nn(CC(=O)Nc2ccn3ccnc3c2)c1=O [Example 460]
Nav1.1 current amplification rate (%) [1, 3]: 221%
Nav1.5 current amplification rate (%) [2, 4]: 46%

SMILES: CC1CCN(c2ccc(=O)n(CC(=O)Nc3ccn4ccnc4c3)n2)CC1 [Example 72]
Nav1.1 current amplification rate (%) [1, 3]: 119%
Nav1.5 current amplification rate (%) [2, 4]: 3%

SMILES: Cc1noc2cc(NC(=O)Cn3nc(N4CCC(C)CC4)ccc3=O)ccc12 [Example 84]
Nav1.1 current amplification rate (%) [1, 3]: 315%
Nav1.5 current amplification rate (%) [2, 4]: 123%

SMILES: O=C(Cn1nc(N2CCC3(CCC3)CC2)ccc1=O)Nc1ccc2ocnc2c1 [Example 126]
activation at 10 µM [1, 5]: 167%
activation at 10 µM [2, 6]: 13%

SMILES: COc1cc(N2CCC(C)(C)CC2)nn(CC(=O)Nc2ccn3ccnc3c2)c1=O [Example 212]
activation at 10 µM [1, 5]: 74%
activation at 10 µM [2, 6]: 3%

SMILES: CC1CCN(c2ccc(=O)n(CC(=O)Nc3ccc(C#N)nc3)n2)CC1 [Example 51]
Nav1.1 current amplification rate (%) [1, 3]: 196%
Nav1.5 current amplification rate (%) [2, 4]: 31%

SMILES: N#Cc1ccc(NC(=O)Cn2nc(N3CCC4(CCCC4)C3)ccc2=O)cn1 [Example 121]
activation at 10 µM [1, 5]: 184%
activation at 10 µM [2, 6]: 98%

SMILES: COc1cc(C2=CCC(C)(C)CC2)nn(CC(=O)Nc2ccn3ccnc3c2)c1=O [Example 456]
Nav1.1 current amplification rate (%) [1, 3]: 224%
Nav1.5 current amplification rate (%) [2, 4]: 29%

SMILES: Cc1cn2ccc(NC(=O)Cn3nc(N4CCC(C)CC4)ccc3=O)cc2n1 [Example 174]
activation at 10 µM [1, 5]: 75%
activation at 10 µM [2, 6]: 4%

SMILES: COc1cc(=O)n(CC(=O)Nc2ccc3oc(C(F)F)nc3c2)nc1C1=CCC(C)(C)CC1 [Example 493]
activation at 3 µM ([1]; compound 3 μmol/L, HEK293 stably expressing human Nav1.1, read-out: Nav1.1 current amplification rate (%)): 317%
activation at 3 µM ([2]; compound 3 μmol/L, CHO-K1 stably expressing human Nav1.5, read-out: Nav1.5 current amplification rate (%)): 20%

SMILES: COc1cc(=O)n(CC(=O)N2CCc3c(N4CCOCC4)cccc32)nc1C1=CCC(C(F)(F)F)CC1 (racemic) [Example 476]
Nav1.1 current amplification rate (%) [1, 3]: 343%
Nav1.5 current amplification rate (%) [2, 4]: 13%

SMILES: Cc1cc(N2CCC3(CCC3)C2)nn(CC(=O)Nc2ccc3c(c2)OCC3)c1=O [Example 202]
activation at 10 µM [1, 5]: 131%
activation at 10 µM [2, 6]: 3%

Now from value to molecule, other results behind:

Nav1.1 current amplification rate (%) [1, 3]: 241%
SMILES: Cc1noc2cc(NC(=O)Cn3nc(C4=CCC(C)CC4)ccc3=O)ccc12 (racemic) [Example 240]
Nav1.5 current amplification rate (%) [2, 4]: 174%

Nav1.1 current amplification rate (%) [1, 7]: 104%
SMILES: CCN1CC(c2cccc3c2CCN3C(=O)Cn2nc(C3=CCC(C)CC3)ccc2=O)C1 (racemic) [Example 302]
Nav1.5 current amplification rate (%) [2, 8]: 79%

activation at 1 µM [1, 9]: 359%
SMILES: O=C(Cn1nc(C2=CCCCC2)ccc1=O)N1CCc2c(-c3ccnnc3)cccc21 [Example 517]
activation at 1 µM [2, 10]: 16%

activation at 1 µM [1, 9]: 99%
SMILES: C[C@@H]1CC=C(c2ccc(=O)n(CC(=O)Nc3ccn4ncnc4c3)n2)CC1 [Example 537, 2-{3-[(4S)-4-methylcyclohex-1-en-1-yl]-6-oxopyridazin-1(6H)-yl}-N-([1,2,4]triazolo[1,5-a]pyridin-7-yl)acetamide]
activation at 1 µM [2, 10]: 29%

Nav1.1 current amplification rate (%) [1, 7]: 584%
SMILES: COc1ncc(-c2cccc3c2CCN3C(=O)Cn2nc(C3=CCC(C)CC3)ccc2=O)cn1 (racemic) [Example 249]
Nav1.5 current amplification rate (%) [2, 8]: 106%

Nav1.1 current amplification rate (%) [1, 3]: 323%
SMILES: CC1CC=C(c2ccc(=O)n(CC(=O)N3CC=C(c4cccnc4)CC3)n2)CC1 (stereo not shown) [Example 402]
Nav1.5 current amplification rate (%) [2, 4]: 21%

Nav1.1 current amplification rate (%) [1, 3]: 32%
SMILES: CC1CC=C(c2ccc(=O)n(CC(=O)Nc3cccc4nccn34)n2)CC1 (racemic) [Example 255]
Nav1.5 current amplification rate (%) [2, 4]: 15%

Nav1.1 current amplification rate (%) [1, 7]: 268%
SMILES: CC1CC=C(c2ccc(=O)n(CC(=O)N3CCN(c4cncc(OC(F)F)c4)CC3)n2)CC1 (stereo not shown) [Example 405]
Nav1.5 current amplification rate (%) [2, 8]: 14%

Nav1.1 current amplification rate (%) [1, 7]: 140%
SMILES: CC1CC=C(c2ccc(=O)n(CC(=O)N3CCc4c(C5CN(C)C5)cccc43)n2)CC1 (racemic) [Example 300]
Nav1.5 current amplification rate (%) [2, 8]: 55%

Nav1.1 current amplification rate (%) [1, 3]: 71%
SMILES: CC1CC=C(c2ccc(=O)n(CC(=O)N3CCC(c4ccncc4)CC3)n2)CC1 (racemic) [Example 259]
Nav1.5 current amplification rate (%) [2, 4]: 2%

Nav1.1 current amplification rate (%) [1, 3]: 70%
SMILES: COc1cc(NC(=O)Cn2nc(N3CCC(C)CC3)ccc2=O)ccn1 [Example 74]
Nav1.5 current amplification rate (%) [2, 4]: −2%
